# Measured values: US20240156847A1 (priority 2022, published 2024)
# Key:
# [1] = system: PRV gE protein (PRV-HeNLH/2017 strain); format: cell-based, Pseudorabies virus
# PRV-HeNLH/2017 strain = format: cell-based, Pseudorabies virus
# PRV-GFP strain = format: cell-based, Pseudorabies virus
smiles,measurement,setting,value
O=C(O)[C@H]1O[C@@H](Oc2cc3oc(-c4ccccc4)cc(=O)c3c(O)c2O)[C@H](O)[C@@H](O)[C@@H]1O [baicalin],inhibition of expression of PRV gE protein,[1],significantly inhibited the expression of PRV gE protein
same,effect on cell viability (cytotoxicity),PK-15 cells,no significant effect on cell viability
same,"inhibition of PRV proliferation (virus titer, TCID50)",PRV-HeNLH/2017 strain,significantly inhibited the proliferation of PRV on PK-15 cells
same,inhibition of proliferation of PRV-GFP strain (green fluorescence),PRV-GFP strain,"inhibited the proliferation of PRV-GFP strains at the using concentrations, and the inhibitory effect was more significant at 62.5 and 125 μM"
